{
  "source": "patent US8452543B2",
  "about": "“High throughput screening for antimicrobial dosing regimens” (priority 2005, dated 2013)",
  "key": {"[1]": {"tested_on": "P. aeruginosa PA 27853 and resistant isolates MR1, MR2, MR3", "test": "microbe, parasite or virus in culture", "format": "cell-based", "details": "Pseudomonas aeruginosa, Etest"}, "[2]": {"tested_on": "P. aeruginosa PA 27853 and resistant isolates MR1, MR2, MR3", "test": "microbe, parasite or virus in culture", "format": "cell-based, Pseudomonas aeruginosa", "details": "Pseudomonas aeruginosa", "protocol": "(§1) Minimum inhibitory concentration (MIC)/minimum bactericidal concentration (MBC) were determined in Ca-MHB using a modified macrobroth dilution method as described by the CLSI (10). The final concentration of bacteria in each macrobroth dilution tube was approximately 5×10^5 cfu/ml of Ca-MHB. Serial twofold dilutions of meropenem were used. […] Samples (50 μl) from clear tubes and the cloudy tube with the highest drug concentration were plated on Mueller-Hinton agar (MHA) plates (Hardy Diagnostics, Santa Maria, Calif.). […] Drug carry-over effect was assessed by visual inspection of the distribution of colonies on media plates. The studies were conducted in duplicate and repeated at least once on a separate day."}, "[3]": {"tested_on": "P. aeruginosa ATCC 27853", "test": "MIC/MBC, modified macrobroth dilution", "format": "cell-based, Pseudomonas aeruginosa", "details": "P. aeruginosa ATCC 27853", "protocol": "as §1, with “The” for “Minimum inhibitory concentration (MIC)/minimum bactericidal concentration (MBC) were determined in Ca-MHB using a modified macrobroth dilution method as described by the CLSI (10). The”"}, "[4]": {"tested_on": "levofloxacin resistant P. aeruginosa isolates", "test": "Susceptibility of levofloxacin resistant isolates, screening panel", "format": "cell-based, Pseudomonas aeruginosa"}, "[5]": {"tested_on": "P. aeruginosa ATCC 27853", "test": "Time-kill studies and model fit, levofloxacin", "format": "cell-based, Pseudomonas aeruginosa", "details": "for EC50: Pseudomonas aeruginosa", "protocol": "An overnight culture of the isolate was diluted 30-fold with pre-warmed Ca-MHB and incubated further at 35 C until reaching late log phase growth. The bacterial suspension was diluted with Ca-MHB accordingly based on absorbance at 630 nm; 15 mL of the suspension was transferred to 50 mL sterile conical flasks each containing 1 mL of a drug solution at 16·the target concentration. The final concentration of the bacterial suspension in each flask at baseline was approximately 1×10^8 CFU/mL.\nThe high inoculum was used to simulate the bacterial load in a severe infection, e.g., nosocomial pneumonia. Furthermore, the high inoculum used would allow resistant sub-population(s) to be likely present at baseline. The experiment was conducted for 24 h in a shaker water bath set at 35° C. Serial samples (baseline, 0.5, 1, 2, 4, 8, 12, and 24 h) were obtained from each flask over 24 h to characterize the effect of various drug exposures on the total bacterial population.\nPrior to culturing the bacteria quantitatively, the bacterial samples (0.5 mL) were centrifuged at 10,000 g for 15 min, and reconstituted with sterile normal saline to their original volumes in order to minimize drug carry-over effect. Total bacterial populations were quantified by spiral plating 10 serial dilutions of the samples (50 IL) onto Ca-MHA plates. The media plates were incubated in a humidified incubator (35° C. for 18-24 h, and the bacterial density from each sample was determined by CASBA-4 colony scanner/software (Spiral Biotech, Bethesda, Md.). The reliable limit of detection was 400 CFU/mL. The experiment was repeated once on a separate day.\nThe mathematical framework described Example 1 is used to predict whether a microbial population will be eradicated or survive under an antimicrobial pressure whose concentration over time follows a clinically realistic (time-periodic) profile. For absence of agent (placebo, C=0 Ig/mL) and by inspection in FIG. 13 it is determined that Nmax=10^9.4 CFU/mL. Using this value for Nmax standard nonlinear least squares (differential evolution of mathematica) is used to get a growth rate constant value Kg=0.22 h^−1.\nIt is assumed that Kg is the same for all bacterial sub-populations, owing to common basic physiology. For the highest agent concentration used (C=64 Ig/mL) there appears to be complete eradication of the entire microbial population after the third sample in time. Therefore, no experimental points beyond that are considered in the data fit. Further, it is assumed that the maximum kill rate, Kk, occurring at an antibiotic concentration high enough to saturate all bacterial target sites, is the same for all bacteria, namely Kk=Kb. […] The values of the remaining parameters are estimated using standard nonlinear least squares for concentrations C=0.5, . . . , 32 Ig/mL (Table 4)."}, "[6]": {"tested_on": "amikacin resistant A. baumannii isolates", "test": "Resistance confirmation, repeat susceptibility testing, amikacin", "format": "cell-based, Acinetobacter baumannii", "details": "for cross-resistance: amikacin resistant isolates", "experimental": "The media plates were incubated at 35° C. for up to 24 (total population) and 72 hours (sub-populations with reduced susceptibility), then bacterial density from each sample was enumerated visually. The theoretical lower limit of detection was 400 CFU/ml."}, "[7]": {"tested_on": "A. baumannii ATCC BAA 747", "test": "Time-kill studies and best-fit model, amikacin", "format": "cell-based, Acinetobacter baumannii"}, "[8]": {"tested_on": "A. baumannii ATCC BAA 747", "test": "MIC/MBC, modified macrobroth dilution", "format": "cell-based", "details": "Acinetobacter baumannii, BAA747; A. baumannii isolate (AB BAA 747)", "protocol": "as §1, with “The” for “Minimum inhibitory concentration (MIC)/minimum bactericidal concentration (MBC) were determined in Ca-MHB using a modified macrobroth dilution method as described by the CLSI (10). The”"}, "[9]": {"details": "strain MR1 (Placebo exposure, OprD−)"}, "[10]": {"details": "strain MR2 (Cmin/MIC 0.5, OprD− & Mex+)"}, "[11]": {"details": "strain MR3 (Cmin/MIC 1.7, OprD− & Mex+), read-out: MIC"}},
  "note": "Where two headings read alike, the source gives them in different places.",
  "data": [
    {"molecule": "C[C@H]1COc2c(N3CCN(C)CC3)c(F)cc3c(=O)c(C(=O)O)cn1c23", "note": "[levofloxacin]", "values": [
      {"measurement": "MIC", "setting": "[1]; [9]", "result": 0.75, "unit": "µg/mL"},
      {"measurement": "MIC", "setting": "[1]; [10]", "result": 4, "unit": "µg/mL"},
      {"measurement": "MIC", "setting": "[1]; strain PA 27853", "result": 0.75, "unit": "µg/mL"},
      {"measurement": "MIC", "setting": "[2]", "result": 6, "unit": "µg/mL"},
      {"measurement": "MIC", "setting": "[3]", "result": 2, "unit": "Ig/mL"},
      {"measurement": "increase in MIC compared to the parent strain", "setting": "[4]; two random isolates from drug supplemented media plates", "result": 16, "unit": "fold"},
      {"measurement": "EC50", "setting": "[5]; ATCC27853, read-out: C50", "result": 0.86, "unit": "µg/mL"},
      {"measurement": "EC50", "setting": "[5]; ATCC27853, read-out: C50b", "result": 39.4, "unit": "µg/mL"},
      {"measurement": "C50A", "setting": "[5]; model fit", "result": 0.45, "unit": "µg/mL"},
      {"measurement": "H", "setting": "[5]; model fit", "result": 1.7},
      {"measurement": "HA", "setting": "[5]; model fit", "result": 10},
      {"measurement": "Hb", "setting": "[5]; model fit", "result": 24}
    ]},
    {"molecule": "CC1(C)S[C@@H]2[C@H](NC(=O)C(C(=O)O)c3ccccc3)C(=O)N2[C@H]1C(=O)O", "note": "(stereo partly shown) [CAR, carbenicillin]", "values": [
      {"measurement": "MIC", "setting": "[2]; strain MR2 (Cmin/MIC 0.5, OprD− & Mex+), macrobroth method", "result": 512, "unit": "µg/mL"},
      {"measurement": "MIC", "setting": "[2]; strain MR3 (Cmin/MIC 1.7, OprD− & Mex+), macrobroth method, read-out: MIC", "result": 512, "unit": "µg/mL"},
      {"measurement": "MIC", "setting": "[2]; strain PA 27853, macrobroth method", "result": 64, "unit": "µg/mL"}
    ]},
    {"molecule": "CC(C)(O/N=C(\\C(=O)N[C@@H]1C(=O)N2C(C(=O)[O-])=C(C[n+]3ccccc3)CS[C@H]12)c1csc(N)n1)C(=O)O", "note": "[CAZ, ceftazidime]", "values": [
      {"measurement": "MIC", "setting": "[1]; [9]", "result": 1, "unit": "µg/mL"},
      {"measurement": "MIC", "setting": "[1]; [10]", "result": 2, "unit": "µg/mL"},
      {"measurement": "MIC", "setting": "[1]; [11]", "result": 4, "unit": "µg/mL"},
      {"measurement": "MIC", "setting": "[1]; strain PA 27853", "result": 1, "unit": "µg/mL"}
    ]},
    {"molecule": "C[C@@H](O)[C@H]1C(=O)N2C(C(=O)O)=C(SCCN=CN)C[C@H]12", "note": "[IPM, imipenem]", "values": [
      {"measurement": "MIC", "setting": "[1]; [9]", "result": "> 32", "unit": "µg/mL"},
      {"measurement": "MIC", "setting": "[1]; [10]", "result": "> 32", "unit": "µg/mL"},
      {"measurement": "MIC", "setting": "[1]; [11]", "result": 32, "unit": "µg/mL"},
      {"measurement": "MIC", "setting": "[1]; strain PA 27853", "result": 3, "unit": "µg/mL"}
    ]},
    {"molecule": "CO/N=C(\\C(=O)N[C@@H]1C(=O)N2C(C(=O)[O-])=C(C[N+]3(C)CCCC3)CS[C@H]12)c1csc(N)n1", "note": "[cefepime]", "values": [
      {"measurement": "cross-resistance", "setting": "[6]", "result": "not"}
    ]},
    {"molecule": "O=C(O)c1cn(C2CC2)c2cc(N3CCNCC3)c(F)cc2c1=O", "note": "[ciprofloxacin]", "values": [
      {"measurement": "cross resistance, change in MIC", "setting": "[4]; levofloxacin resistant isolates", "result": "≥ 4", "unit": "fold"}
    ]},
    {"molecule": "NC[C@H]1O[C@H](O[C@H]2[C@H](O)[C@@H](O[C@H]3O[C@H](CO)[C@@H](O)[C@H](N)[C@H]3O)[C@H](N)C[C@@H]2N)[C@H](N)C[C@@H]1O", "note": "[TOB, tobramycin]", "values": [
      {"measurement": "MIC", "setting": "[1]; [9]", "result": 0.5, "unit": "µg/mL"},
      {"measurement": "MIC", "setting": "[1]; [10]", "result": 0.5, "unit": "µg/mL"},
      {"measurement": "MIC", "setting": "[1]; [11]", "result": 0.5, "unit": "µg/mL"},
      {"measurement": "MIC", "setting": "[1]; strain PA 27853", "result": 0.5, "unit": "µg/mL"},
      {"measurement": "cross-resistance", "setting": "[6]", "result": "observed"}
    ]},
    {"molecule": "CCN1CCN(C(=O)N[C@@H](C(=O)N[C@@H]2C(=O)N3[C@@H]2SC(C)(C)[C@@H]3C(=O)O)c2ccccc2)C(=O)C1=O", "note": "[PIP, piperacillin]", "values": [
      {"measurement": "MIC", "setting": "[1]; [9]", "result": 3, "unit": "µg/mL"},
      {"measurement": "MIC", "setting": "[1]; [10]", "result": 8, "unit": "µg/mL"},
      {"measurement": "MIC", "setting": "[1]; [11]", "result": 32, "unit": "µg/mL"},
      {"measurement": "MIC", "setting": "[1]; strain PA 27853", "result": 3, "unit": "µg/mL"}
    ]},
    {"molecule": "NCC[C@H](O)C(=O)N[C@@H]1C[C@H](N)[C@@H](O[C@H]2O[C@H](CN)[C@@H](O)[C@H](O)[C@H]2O)[C@H](O)[C@H]1O[C@H]1O[C@H](CO)[C@@H](O)[C@H](N)[C@H]1O", "note": "[amikacin]", "values": [
      {"measurement": "H", "setting": "[7]; AB BAA 747", "result": 3.06},
      {"measurement": "Kk", "setting": "[7]; AB BAA 747", "result": 27.81, "unit": "h⁻¹"},
      {"measurement": "β", "setting": "[7]; AB BAA 747", "result": 50.09},
      {"measurement": "τ", "setting": "[7]; AB BAA 747", "result": 442, "unit": "µL/min/mg"},
      {"measurement": "EC50", "setting": "[7]; Acinetobacter baumannii, BAA747, AB BAA 747, read-out: C50k", "result": 1.56, "unit": "µg/mL"},
      {"measurement": "concentrations with complete bacterial eradication", "setting": "[7]; after 2 hours of drug exposure", "result": "> 16", "unit": "mg/L"},
      {"measurement": "MBC", "setting": "[8]", "result": 8, "unit": "µg/mL"},
      {"measurement": "MIC", "setting": "[8]", "result": 4, "unit": "µg/mL"},
      {"measurement": "stability of resistance", "setting": "[6]; resistant isolates from sub-optimal dosing regimens", "result": "phenotypically stable"}
    ]}
  ]
}
